# Results reported in PubChem BioAssay (NCI).
#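 Interpolation was linear, between the two tested concentrations surrounding the appropriate level; five concentrations were tested over 48 hours in 96-well plates. TGI: concentration producing complete growth inhibition.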
# Assays:
# Assay in all cases: NCI tumour cell line growth inhibition, 48 h
# HOP-62 NSCLC = tested on: HOP-62 NSCLC
# OVCAR-8 ovarian = tested on: OVCAR-8 ovarian
# HCT-116 colon = tested on: HCT-116 colon
# M14 melanoma = tested on: M14 melanoma
# 786-0 renal = tested on: 786-0 renal
# TK-10 renal = tested on: TK-10 renal
# HCT-15 colon = tested on: HCT-15 colon
# NCI-H226 lung = tested on: NCI-H226 lung
# SK-OV-3 ovarian = tested on: SK-OV-3 ovarian
# MCF7 breast = tested on: MCF7 breast
# SNB-19 CNS = tested on: SNB-19 CNS
# MDA-MB-231 breast = tested on: MDA-MB-231 breast
# HOP-92 NSCLC = tested on: HOP-92 NSCLC
# SK-MEL-5 melanoma = tested on: SK-MEL-5 melanoma
# OVCAR-3 ovarian = tested on: OVCAR-3 ovarian
# DU-145 prostate = tested on: DU-145 prostate
# K-562 leukemia = tested on: K-562 leukemia
# SK-MEL-28 melanoma = tested on: SK-MEL-28 melanoma
# U251 CNS = tested on: U251 CNS
# SF-539 CNS = tested on: SF-539 CNS
# BT-549 breast = tested on: BT-549 breast
# SN12C renal = tested on: SN12C renal
# CCRF-CEM leukemia = tested on: CCRF-CEM leukemia
# NCI-H460 lung = tested on: NCI-H460 lung
# KM12 colon = tested on: KM12 colon
# UACC-62 melanoma = tested on: UACC-62 melanoma
# HCC-2998 colon = tested on: HCC-2998 colon
# OVCAR-4 ovarian = tested on: OVCAR-4 ovarian
# MDA-MB-435 = tested on: MDA-MB-435
# COLO 205 colon = tested on: COLO 205 colon
# NCI-H522 lung = tested on: NCI-H522 lung
# SNB-75 CNS = tested on: SNB-75 CNS
# HS 578T breast = tested on: HS 578T breast
# EKVX NSCLC = tested on: EKVX NSCLC
# SF-295 CNS = tested on: SF-295 CNS
# LOX IMVI melanoma = tested on: LOX IMVI melanoma
# CAKI-1 renal = tested on: CAKI-1 renal
# NCI/ADR-RES ovarian = tested on: NCI/ADR-RES ovarian
# SK-MEL-2 melanoma = tested on: SK-MEL-2 melanoma
# RPMI-8226 leukemia = tested on: RPMI-8226 leukemia
# SW-620 colon = tested on: SW-620 colon
# MALME-3M melanoma = tested on: MALME-3M melanoma
# MOLT-4 leukemia = tested on: MOLT-4 leukemia
# UACC-257 melanoma = tested on: UACC-257 melanoma
# NCI-H23 lung = tested on: NCI-H23 lung
# HT29 colon = tested on: HT29 colon
# PC-3 prostate = tested on: PC-3 prostate
# A549 NSCLC = tested on: A549 NSCLC
# A498 renal = tested on: A498 renal
# UO-31 renal = tested on: UO-31 renal
# SF-268 CNS = tested on: SF-268 CNS
# MDA-N = tested on: MDA-N
# ACHN renal = tested on: ACHN renal
# OVCAR-5 ovarian = tested on: OVCAR-5 ovarian
# HL-60(TB) leukemia = tested on: HL-60(TB) leukemia
# T-47D breast = tested on: T-47D breast
# SR leukemia = tested on: SR leukemia
smiles,measurement,setting,value
O=C(c1c(Cl)cc(Cl)cc1Cl)N(Cc1cccnc1)C(=S)N(Cc1cccnc1)C(=O)c1c(Cl)cc(Cl)cc1Cl,TGI,HOP-62 NSCLC,20.3 µM
same,TGI,OVCAR-8 ovarian,16.5 µM
same,TGI,HCT-116 colon,11.1 µM
same,TGI,M14 melanoma,26.5 µM
same,TGI,786-0 renal,10.5 µM
same,TGI,TK-10 renal,11.1 µM
same,TGI,HCT-15 colon,11.2 µM
same,TGI,NCI-H226 lung,45.1 µM
same,TGI,SK-OV-3 ovarian,77 µM
same,TGI,MCF7 breast,15.8 µM
same,TGI,SNB-19 CNS,52.4 µM
same,TGI,MDA-MB-231 breast,40.9 µM
same,TGI,HOP-92 NSCLC,10.6 µM
same,TGI,SK-MEL-5 melanoma,26.4 µM
same,TGI,OVCAR-3 ovarian,13.9 µM
same,TGI,DU-145 prostate,17.2 µM
same,TGI,K-562 leukemia,> 100 µM
same,TGI,SK-MEL-28 melanoma,47.9 µM
same,TGI,U251 CNS,27.3 µM
same,TGI,SF-539 CNS,28.4 µM
same,TGI,BT-549 breast,9.59 µM
same,TGI,SN12C renal,20.5 µM
same,TGI,CCRF-CEM leukemia,> 100 µM
same,TGI,NCI-H460 lung,32.9 µM
same,TGI,KM12 colon,10.3 µM
same,TGI,UACC-62 melanoma,34.2 µM
same,TGI,HCC-2998 colon,7.4 µM
same,TGI,OVCAR-4 ovarian,5.25 µM
same,TGI,MDA-MB-435,26.5 µM
same,TGI,COLO 205 colon,21.9 µM
same,TGI,NCI-H522 lung,25.6 µM
same,TGI,SNB-75 CNS,14.2 µM
same,TGI,HS 578T breast,58.4 µM
same,TGI,EKVX NSCLC,35.3 µM
same,TGI,SF-295 CNS,43.2 µM
same,TGI,LOX IMVI melanoma,15.1 µM
same,TGI,CAKI-1 renal,19.8 µM
same,TGI,NCI/ADR-RES ovarian,34.3 µM
same,TGI,SK-MEL-2 melanoma,36 µM
same,TGI,RPMI-8226 leukemia,> 100 µM
same,TGI,SW-620 colon,> 100 µM
same,TGI,MALME-3M melanoma,42.4 µM
same,TGI,MOLT-4 leukemia,> 100 µM
same,TGI,UACC-257 melanoma,22.8 µM
same,TGI,NCI-H23 lung,23.5 µM
same,TGI,HT29 colon,13.2 µM
same,TGI,PC-3 prostate,24 µM
same,TGI,A549 NSCLC,> 100 µM
same,TGI,A498 renal,51.6 µM
same,TGI,UO-31 renal,19.4 µM
same,TGI,SF-268 CNS,27.8 µM
same,TGI,MDA-N,5.2 µM
same,TGI,ACHN renal,41.1 µM
same,TGI,OVCAR-5 ovarian,40.8 µM
same,TGI,HL-60(TB) leukemia,64.7 µM
same,TGI,T-47D breast,41.4 µM
same,TGI,SR leukemia,> 100 µM
